Laboratory results as given in ChEMBL document CHEMBL1140790, “Determination of absolute stereochemistry, total synthesis, and evaluation of peptides from the myxomycete Physarum melleum” (Bioorg Med Chem Lett, 2008).
The source made the active and inactive calls. The calls are words filed in the database; no cut-off is given here.

Test: Inhibition of Wnt signal activity by luciferase superTOP-Flash gene assay

Activity	SMILES
inactive	COC(=O)C[C@H](O)[C@H](Cc1ccc(O)cc1)NC(=O)CNC(=O)[C@@H](NC(=O)c1ccc(OC)cc1)[C@@H](C)O
Active	COC(=O)C[C@H](O)[C@H](Cc1ccc(O)cc1)NC(=O)CNC(=O)[C@H](NC(=O)c1ccc(OC)cc1)[C@@H](C)O
